# Reference: patent US4313943A, “7-Chloro-2,3-dihydro-5-phenyl-1-propargyl-1H-1,4-benzodiazepine-2-one, and a pharmaceutical composition thereof” (priority 1972, dated 1982)
# “And” between values parts separate entries of the source, which are not always exact repeats. Identical values can stand only once.
# What was measured:
# [1] = Acute toxicity comparison (LD50, Litchfield and Wilcoxan); conditions: in vivo; Table 11; oral; species not given
# Procedure: Toxicity in test animals to the test compounds in terms of LD50 after oral and intraperitoneal administration was determined according to the procedure of Litchfield and Wilcoxan (1949) and the hypnotic effect on test animals was determined in accordance with the method of Janssen (1959).
# [2] = Modifications in the electrocorticogram (ECoG) of unanesthetized animals, R index; assay type: in vivo
# Procedure: Twenty-four hours prior to the test, the surface of a test animal's skull was exposed and stainless steel electrodes were screwed through the lamina externa to make contact with the dura matter in the frontal, parietal and occipital regions, on both sides of the median and transverse sutures. The ECoG was recorded on a REEGA MINI HUIT (Alvar Electronic) encephalograph with a transverse circuit, with bi-frontal, bi-parietal and bi-occipital leads and a longitudinal circuit, with fronto-pariental and parieto-occipital leads on both left and right. One track was used to record respiration, with leads from two steel needles placed under the shin, on either side of the thorax.
# Some test animals were kept in restraint cases placed in a relatively soundproof room and some were left free to move in metal cases measuring 40×50×30 cm, which were also kept in a relatively quiet environment.
# The activity of the test compounds studied was judged on the one hand by the pattern of spontaneous electrogenesis, especially by the relative degree to which the three basic rhythms of the ECoG in the animals were represented; the theta rhythm (4-8 c/sec.), predominant and characteristic of the state of wakefulness in the posterior regions; bursts of rapid spiked waves (alpha rhythm, 9-15 c/sec.) recorded in the course of diffused wakefulness, and slow waves (delta rhythm, 0.5-3 c/sec.) which are absent in a state of wakefulness except in pathological conditions or in the presence of medicinal substances, a rhythm characteristic of slow-wave sleep. The rapid, low-voltage beta rhythm, not very characteristic of the ECoG in the test animals used and primarily superimposed on the other rhythms, was not analyzed.
# Possible modifications in cortical reactivity were also investigated, using two types of stimulation, one comprised an auditory stimulus (whistle blasts) and the other a nociceptive stimulus delivered to the cutaneous nerve endings by pinching the dorsal skin with Kocher's clamps.
# To the foregoing qualitative analysis, a quantitative analysis concerning the evolution of spontaneous electrogenesis under the influence of test compounds 1 and 4 was added. The activity of the two compounds was judged by variations in an "R" index, defined as the ratio between the theta waking rhythm, slow waves and bursts of rapid spiked waves. Initially, R was evaluated quantitatively on a scale from 0 to 4 and after this initial estimate, variations in the R index were rated on a scale from 0 to 5 as follows:
# 1. Maintenance of the value calculated in making the reference tracking (basal value) 0 since variation is nil.
# 2. Reduction in basal values
# (a) reduction of basal value by one-half -1.
# (b) observed value between 1/2 and 1/5 of basal value -2.
# (c) observed value between 1/5 and 1/10 of basal value -3.
# (d) observed value between 1/10 and 1/20 of basal value -4.
# (e) observed value lower than 1/20 of basal value, reflecting maximum perturbation of spontaneous ECoG and expressing either a pathological condition or a state of slow-wave sleep, with the absence of theta rhythms and the exclusive presence of slow waves and/or bursts of rapid spiked waves -5.
# Once the various values were allocated to each animal, the mean of these values were calculated for each experimental period. From these means, calculations were made of the percentages of variation as compared to a theoretical maximum value of -5 for each experimental period. The percentage for each period was calculated every 30 minutes for 7 hours, with a theoretical total of -10 per hour, then between 7 and 48 hours (theoretical total […]) and between the time of administering the test compound and the 48th hour (theoreticaltotal -90). Variations of 10% were not regarded as significant. All dosages were administered intragastrically through the esophageal tube. […]
# dorsal hippocampus = test: Hippocampal after-discharge (stimulation of dorsal hippocampus); assay type: in vivo; conditions: 7.5 mg/kg intragastric; for Duration of Hippocampal After-Discharge: individual animals
# Procedure: The test animals for this study were also prepared according to the technique described by Monnier and Gangloff (infra B, page 30) and the animals were kept in restraint cages in a relatively soundproof room.
# The activity of test compounds 1 and 4 was assessed in identical groups of test animals for each compound, with identical numbers of animals for hippocampal after-discharges and for amygdaloid after-discharges. A dose of 7.5 mg/kg of each test compound was adminstered by the intragastric route. In each animal, after-discharges were triggered every 45 minutes after the administration of a test compound.
# The stimulation consisted of a series of waves with a duration of 3 m sec., delivered at a frequency of 40 c/sec., with 5 seconds as the total duration of the stimulation. The shocks were delivered by a Neurovar neurostimulator (Alvar Electronic), coupled to a CRC cathode oscilloscope (type OC 343). Cerebral electric activity was recorded by REEGA MINI HUIT electroencephalograph (Alvar Electronic).
# [3] = 7.5 mg/kg intragastric, 2 Hours
# [4] = 7.5 mg/kg intragastric, 3 Hours
# [5] = 7.5 mg/kg intragastric, 4 Hours
# [6] = 7.5 mg/kg intragastric, 5 Hours
# [7] = 7.5 mg/kg intragastric, 6 Hours
# [8] = 7.5 mg/kg intragastric, 7 Hours
# [9] = 7.5 mg/kg intragastric, 48 Hours (7-48 h)
# [10] = 7.5 mg/kg intragastric, After 48 Hours (0-48 h total)
# [11] = 15.0 mg/kg intragastric, 1 Hour
# [12] = 15.0 mg/kg intragastric, 2 Hours
# [13] = 15.0 mg/kg intragastric, 3 Hours
# [14] = 15.0 mg/kg intragastric, 4 Hours
# [15] = 15.0 mg/kg intragastric, 5 Hours
# [16] = 15.0 mg/kg intragastric, 6 Hours
# [17] = 15.0 mg/kg intragastric, 7 Hours
# [18] = 15.0 mg/kg intragastric, 48 Hours (7-48 h)
# [19] = 15.0 mg/kg intragastric, After 48 Hours (0-48 h total)
# [20] = 30.0 mg/kg intragastric, 1 Hour
# [21] = 30.0 mg/kg intragastric, 2 Hours
# [22] = 30.0 mg/kg intragastric, 3 Hours
# [23] = 30.0 mg/kg intragastric, 4 Hours
# [24] = 30.0 mg/kg intragastric, 5 Hours
# [25] = 30.0 mg/kg intragastric, 6 Hours
# [26] = 30.0 mg/kg intragastric, 7 Hours
# [27] = 30.0 mg/kg intragastric, 48 Hours (7-48 h)
# [28] = 30.0 mg/kg intragastric, After 48 Hours (0-48 h total)
structure (smiles),measurement,setting,value
"C#CCN1C(=O)CN=C(c2ccccc2Cl)c2cc(Cl)ccc21 [Compound 4, 7-chloro-2,3-dihydro-5-(2-chlorophenyl)-1-propargyl-1,H-1,4-benzodiazepine-2-one]",LD50,[1],> 5000 mg/kg
same,duration of effect on spontaneous electrogenesis,[2]; 1.5 mg/kg,2 h
same,latency of the effects,[2]; 1.5 mg/kg,25 min
same,average duration of effect on spontaneous electrogenesis,[2]; 3.75 mg/kg,4 h
same,"R index variation, Mean","[2]; 7.5 mg/kg intragastric, 1 Hour",-9.5
same,"R index, % of Variation","[2]; 7.5 mg/kg intragastric, 1 Hour",-63.3%
same,"R index variation, Mean",[2]; [3],-7.5
same,"R index, % of Variation",[2]; [3],-75.0%
same,"R index variation, Mean",[2]; [4],-6.0
same,"R index, % of Variation",[2]; [4],-60.0%
same,"R index variation, Mean",[2]; [5],-3.0
same,"R index, % of Variation",[2]; [5],-30.0%
same,"R index variation, Mean",[2]; [6],-4.5
same,"R index, % of Variation",[2]; [6],-45.0%
same,"R index variation, Mean",[2]; [7],-1.5
same,"R index, % of Variation",[2]; [7],-15.0%
same,"R index variation, Mean",[2]; [8],-1.00
same,"R index, % of Variation",[2]; [8],-10.0%
same,"R index variation, Mean",[2]; [9],0
same,"R index, % of Variation",[2]; [9],0%
same,"R index variation, Mean",[2]; [10],-33.0
same,"R index, % of Variation",[2]; [10],-36.7%
same,"R index variation, Mean",[2]; [11],-13.0
same,"R index, % of Variation",[2]; [11],-86.7%
same,"R index variation, Mean",[2]; [12],-8.5
same,"R index, % of Variation",[2]; [12],-85.0%
same,"R index variation, Mean",[2]; [13],-7.0
same,"R index, % of Variation",[2]; [13],-70.0%
same,"R index variation, Mean",[2]; [14],-5.5
same,"R index, % of Variation",[2]; [14],-55.0%
same,"R index variation, Mean",[2]; [15],-5.0
same,"R index, % of Variation",[2]; [15],-50.0%
same,"R index variation, Mean",[2]; [16],-1.5
same,"R index, % of Variation",[2]; [16],-15.0%
same,"R index variation, Mean",[2]; [17],-1.50
same,"R index, % of Variation",[2]; [17],-15.0%
same,"R index variation, Mean",[2]; [18],+1.50
same,"R index, % of Variation",[2]; [18],+10.0%
same,"R index variation, Mean",[2]; [19],-40.5
same,"R index, % of Variation",[2]; [19],-45.0%
same,Cortical reactivity induced by exteroceptive stimulation,[2]; 30 mg/kg,remained unchanged
same,"R index variation, Mean",[2]; [20],-6.99
same,"R index, % of Variation",[2]; [20],-46.7%
same,"R index variation, Mean",[2]; [21],-5.32
same,"R index, % of Variation",[2]; [21],-53.2%
same,"R index variation, Mean",[2]; [22],-6.32
same,"R index, % of Variation",[2]; [22],-63.2%
same,"R index variation, Mean",[2]; [23],-4.99
same,"R index, % of Variation",[2]; [23],-49.9%
same,"R index variation, Mean",[2]; [24],-2.99
same,"R index, % of Variation",[2]; [24],-29.9%
same,"R index variation, Mean",[2]; [25],-2.33
same,"R index, % of Variation",[2]; [25],-23.3%
same,"R index variation, Mean",[2]; [26],-0.66
same,"R index, % of Variation",[2]; [26],-6.6%
same,"R index variation, Mean",[2]; [27],-1.98
same,"R index, % of Variation",[2]; [27],-13.2%
same,"R index variation, Mean",[2]; [28],-31.58
same,"R index, % of Variation",[2]; [28],-35.1%
same,duration of effects on spontaneous electrogenesis,"[2]; 7.5, 15 and 30 mg/kg",at least 5 hours
same,effect on duration of hippocampal after-discharge,dorsal hippocampus,no apparent effect on the duration of the paroxysm
same,Duration of Hippocampal After-Discharge,dorsal hippocampus; 45 Mins.,10 s and 20 s and 18 s and 14 s and 12 s
same,Duration of Hippocampal After-Discharge,dorsal hippocampus; 90 Mins.,7 s and 16 s and 20 s and 15 s and 11 s
same,Duration of Hippocampal After-Discharge,dorsal hippocampus; 135 Mins.,6 s and 15 s and 17.5 s and 13.5 s and 14 s
same,Duration of Hippocampal After-Discharge,dorsal hippocampus; 180 Mins.,8 s and 10.5 s and 18 s and 15 s
same,Duration of Hippocampal After-Discharge,dorsal hippocampus; 225 Mins.,9 s and 19 s and 18.5 s and 13 s and 10 s
same,Duration of Hippocampal After-Discharge,dorsal hippocampus; 270 Mins.,10 s and 22 s and 27 s and 13 s and 16 s
